Data from patent US11911349B2, “Rapidly improving vascular conditions by administering vitamin K” (NATTOPHARMA AS, priority 2018, dated 2024).

Experiments:
[1] = test system: thrombin generation; assay: Example 3: thrombin generation by calibrated automated thrombogram (CAT) in plasma; assay type: in vivo, mice; details: eight weeks
Description: Thrombin generation was measured in platelet-poor mice plasma using calibrated automated thrombography (CAT) technique as described in Hemker H C, Giesen P, Al Dieri R, Regnault V, de Smedt E, Wagenvoord R, et al. Calibrated automated thrombin generation measurement in clotting plasma. Pathophysiol Haemost Thromb 2003; 33:4-15. doi:71636. Thrombin generation was activated by mixing 21 μL of diluted plasma (1:1 with BSA5 buffer) with 7 μIL of fluorogenic substrate (Z-Gly-Gly-Arg-AMC, 16.6 mM) and 14 μL of trigger solution containing phospholipids, tissue factor and CaCl2 (4 μM, 1 pM and 16.6 mM, respectively). In the calibration wells, the 14 μL of reagents were replaced with calibrator (102 nM). Immediately after the activation, 5 μL of the mixture was pipetted on paper disks in a flat bottom 96-well polystyrene plate and covered with 40 μL of mineral oil. Fluorescent signals were measured using the Fluoroskan Ascent software (Thermo Labsystems, Helsinki, Finland) and transformed into thrombin concentration as described in Hemker H C, Kremers R. Data management in Thrombin Generation. Thromb Res 2013; 131:3-11. doi:10.1016/j.thromres.2012.10.011. The parameters analyzed included endogenous thrombin potential (ETP), peak thrombin concentration (peak), and lag time.

[2] = test system: ApoE/LDLR−/− mice; assay: Example 2: histological assessment of plaque size, composition and vessel wall area in BCA; assay type: in vivo; details: two months
Description: For the determination of atherosclerotic plaque area and composition BCA was dissected, fixed in 4% buffered formalin and embedded in paraffin. 5 μm-thick serial sections of BCA were collected from proximal, middle and distal parts of artery. Originally developed staining with Unna's orcein combined with Martius, Scarlet and Blue trichrome (OMSB), was applied on every tenth section (50 μm interval between each section) for visualization of collagen, elastin, fibrin, red blood cells and vascular smooth muscle cells within atherosclerotic plaque. The areas of particular components of atherosclerotic plaque as well as artery lumen and wall were determined after Columbus-based software processing (FIG. 1B) using a previously developed algorithm [Gajda M, Jasztal A, Banasik T, Jasek-Gajda E, Chlopicki S. Combined orcein and martius scarlet blue (OMSB) staining for qualitative and quantitative analyses of atherosclerotic plaques in brachiocephalic arteries in apoE/LDLR−/− mice. Histochem Cell Biol 2017. doi:10.1007/s00418-017-1538-8.].

[3] = test system: ApoE/LDLR−/− mice; assay: Example 3: MRI assessment of FMD in femoral artery and Ach response in abdominal aorta, young mice; assay type: in vivo; details: for improvement in endothelial function compared with low dose (0.05 mg/kg) for 4 weeks: four weeks
Description: In a first part of the study, the effects of low doses (0.05 mg/kg b.w./day) as well as higher doses (0.5 mg/kg b.w./day and 5 mg/kg b.w./day) of vitamin K2 (MK-7, referred to in this example as simply “vitamin K2,” unless noted otherwise) on endothelial function in ApoE/LDLR−/−mice without well-established atherosclerotic plaque and with early phase of endothelial dysfunction were assessed.
Mice were randomly assigned to one of four experimental groups: control (untreated group) and three groups treated with vitamin K2 at a dose of 0.05, 0.5, and 5 mg/kg b.w./day, respectively. End-point measurements were performed at the age of 10-16 weeks.
Magnetic resonance imaging (MRI) experiments were performed using a 9.4T scanner (BioSpec 94/20 USR, Bruker, Germany) located in the Department of Magnetic Resonance Imaging, Institute of Nuclear Physics, Polish Academy of Sciences in Krakow. During the experiment, mice were anaesthetized using isoflurane (Aerrane, Baxter Sp. z o. o., Poland, 1.7 vol %) in an oxygen and air (1:2) mixture and imaged in the supine position. Activity of the heart, respiration, and body temperature (maintained at 37° C. using circulating warm water) were monitored using a Monitoring and Gating System (SA Inc., Stony Brook, N.Y., USA).
Endothelial function was assessed based on vascular responses to acetylcholine (Ach) administration in brachiocephalic artery (BCA), left common carotid artery (LCA) (FIGS. 6 A and B) and abdominal aorta (AA) (FIG. 6C) as well as to responses to increase in flow (flow-mediated dilatation, FMD) in femoral artery (FA) (FIG. 6D) as described in Bar A, Skorka T, Jasinski K, Sternak M, Bartel Ż, Tyrankiewicz U, et al. Retrospectively-gated MRI for in vivo assessment of endothelium-dependent vasodilatation and endothelial permeability in murine models of endothelial dysfunction. NMR Biomed 2016; 29(8):1088; Sternak M, Bar A, Adamski M G, Mohaissen T, Marczyk B, Kieronska A, et al. The Deletion of Endothelial Sodium Channel α (αENaC) Impairs Endothelium-Dependent Vasodilation and Endothelial Barrier Integrity in Endotoxemia in Vivo. Front Pharmacol 2018; 9:178. doi:10.3389/fphar.2018.00178; and Bar A, Olkowicz M, Tyrankiewicz U, Kus E, Jasinski K, Smolenski R T, et al. Functional and Biochemical Endothelial Profiling In Vivo in a Murine Model of Endothelial Dysfunction; Comparison of Effects of 1-Methylnicotinamide and Angiotensin-converting Enzyme Inhibitor. Front Pharmacol 2017; 8:183. doi:10.3389/fphar.2017.00183).
Vasomotor response was examined by comparing two time-resolved 3D images of the vessels prior to and 25 minutes after intraperitoneal Ach administration (Sigma-Aldrich, Poznan Poland: 50 μl, 16.6 mg/kg), as well as prior to and 5 minutes after vessel occlusion. Images were acquired using the cine IntraGate™ FLASH 3D sequence, reconstructed with the IntraGate 1.2.b.2 macro (Bruker). End-diastolic volumes of vessels were analyzed using ImageJ software 1.46r (NIH Bethesda, Md., USA) and scripts written in Matlab (MathWorks, Natick, Mass., USA). Imaging parameters included the following: repetition time (TR)—6.4 ms, echo time (TE)—1.4 ms, field of view (FOV)—30×30×5 mm3, matrix size—256×256×30, flip angle (FA)—30°, and number of accumulations (NA)—15, reconstructed to 7 cardiac frames. Total scan time was 10 minutes.

[4] = test system: ApoE/LDLR−/− mice; assay: Example 2: nitrite and nitrate concentration in plasma (HPLC, ENO-20); assay type: in vivo; details: two months
Description: Blood samples were collected from heart into test tubes containing additional anticoagulant and centrifuged at 1000 g for 10 min at 4° C. The samples were used for HPLC measurement of nitrate (NO3−) and nitrite (NO2−) concentrations in plasma by an ENO-20 NOx Analyzer.

SMILES: CC(C)=CCC/C(C)=C/CC/C(C)=C/CC/C(C)=C/CC/C(C)=C/CC/C(C)=C/CC/C(C)=C/CC1=C(C)C(=O)c2ccccc2C1=O [MK-7, menaquinone-7]
- thrombin generation ([1]; 0.03 mg/kg b.w./day): did not affect
- thrombin generation ([1]; 10 mg/kg b.w./day): did not affect
- content of collagen in plaque, treated vs untreated ([2]; high dose 10 mg/kg b.w./day): lack of differences
- decrease in lipid core expressed as percent of plaque ([2]; high dose 10 mg/kg b.w./day): about 17%
- decrease in vessel wall area (VWA) of BCA ([2]; high dose 10 mg/kg b.w./day): about 5%
- effect on plaque size ([2]; high dose 10 mg/kg b.w./day): did not result in a beneficial effect
- lumen area expressed as percent of IWA ([2]; high dose 10 mg/kg b.w./day): did not change
- plaque area expressed as percent of IWA ([2]; high dose 10 mg/kg b.w./day): did not change
- content of collagen in plaque, treated vs untreated ([2]; low dose 0.03 mg/kg b.w./day): lack of differences
- decrease in lipid core expressed as percent of plaque ([2]; low dose 0.03 mg/kg b.w./day): about 17%
- decrease in vessel wall area (VWA) of BCA ([2]; low dose 0.03 mg/kg b.w./day): about 5%
- effect on plaque size ([2]; low dose 0.03 mg/kg b.w./day): did not result in a beneficial effect
- lumen area expressed as percent of IWA ([2]; low dose 0.03 mg/kg b.w./day): did not change
- plaque area expressed as percent of IWA ([2]; low dose 0.03 mg/kg b.w./day): did not change
- internal wall area (IWA) ([2]; lower dose 0.03 mg/kg b.w./day, not visible for entire vessel): decreased only in the middle part of the vessel
- Ach response in AA, volume changes ([3]; 0.05 mg/kg b.w./day, eight weeks, untreated −16.22%, p=0.05): −0.65%
- magnitude of endothelium-dependent response to acetylcholine in abdominal aorta (ACH-AA) ([3]; 0.05 mg/kg b.w./day, two weeks): lack of changes
- magnitude of vasodilatation in response to increase in flow in femoral artery (FMD-FA) ([3]; 0.05 mg/kg b.w./day, two weeks): lack of changes
- improvement in endothelial function compared with low dose (0.05 mg/kg) for 4 weeks ([3]; 0.5 mg/kg b.w./day): not superior
- improvement in endothelial function compared with low dose (0.05 mg/kg) for 4 weeks ([3]; 5 mg/kg b.w./day): not superior
- Ach response in AA, volume changes ([3]; 5 mg/kg b.w./day, two weeks, untreated −7.72%, p=0.1): 0.16%
- concentration of NO3− in plasma ([4]; 0.03 mg/kg b.w./day): did not change significantly
- concentration of NO3− in plasma ([4]; 10 mg/kg b.w./day): did not change significantly
